From PMC12173503, “Enterohaemorrhagic Escherichia coli AdhE spirosome length correlates with enzymatic directionality and is perturbed by salicylidene acylhydrazides” (Open Biology, 2025) come the findings set out here.

For assay [1], the target named is T1, AdhE (6-His-AdhE) (Escherichia coli, UniProt P0A9Q7). Conditions: reverse reaction; 200 mM ethanol, 500 μM NAD+, 200 μM CoASH, 20 μM FeSO4, 250 mM NaCl, 50 mM Tris-HCl pH 8.0, 37 °C.
The target in assay [2] is T1, AdhE (6-His-AdhE). The experiment in a line: NADH consumption at […] nm. In kind it is biochemical. Also on record: full-length AdhE, N-terminal 6-His tag kept, pET28a, expressed in E. coli BL21(DE3); spirosome oligomers, SEC fractions F12 (long) and F24 (short). The note with it: forward reaction; 200 μM acetyl-CoA, 250 μM NADH, 20 μM FeSO4, 250 mM NaCl, 50 mM Tris-HCl pH 8.0, 37 °C.

T1 sequence (P0A9Q7 whole entry): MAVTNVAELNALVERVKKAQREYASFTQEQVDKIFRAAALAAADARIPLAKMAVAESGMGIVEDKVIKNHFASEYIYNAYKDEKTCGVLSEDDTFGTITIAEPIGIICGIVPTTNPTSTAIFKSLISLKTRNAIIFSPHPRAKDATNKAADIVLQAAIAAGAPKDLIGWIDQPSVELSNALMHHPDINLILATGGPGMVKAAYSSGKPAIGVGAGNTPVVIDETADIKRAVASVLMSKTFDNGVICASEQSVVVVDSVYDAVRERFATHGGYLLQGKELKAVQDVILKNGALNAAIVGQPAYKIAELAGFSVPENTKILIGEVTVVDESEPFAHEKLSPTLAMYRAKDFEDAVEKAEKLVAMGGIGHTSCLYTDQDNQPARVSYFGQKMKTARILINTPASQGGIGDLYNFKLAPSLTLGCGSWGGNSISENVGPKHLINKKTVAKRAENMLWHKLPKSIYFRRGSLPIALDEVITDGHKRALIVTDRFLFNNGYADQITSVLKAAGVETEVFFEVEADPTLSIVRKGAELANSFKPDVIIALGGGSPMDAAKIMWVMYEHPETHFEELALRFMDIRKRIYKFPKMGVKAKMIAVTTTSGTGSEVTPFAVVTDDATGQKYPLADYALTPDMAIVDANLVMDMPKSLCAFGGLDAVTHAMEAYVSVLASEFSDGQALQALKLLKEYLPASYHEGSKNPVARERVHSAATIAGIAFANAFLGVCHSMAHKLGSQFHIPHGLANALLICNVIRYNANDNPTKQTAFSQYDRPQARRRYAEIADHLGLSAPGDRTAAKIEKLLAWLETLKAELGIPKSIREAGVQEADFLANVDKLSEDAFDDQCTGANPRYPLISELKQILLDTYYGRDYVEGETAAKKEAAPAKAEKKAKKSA

For the compound `CCO` [ethanol], the “NADH production at 340 nm” value on AdhE (6-His-AdhE) [1] is “F12 or F24 was incubated with ethanol, NAD^+ and CoASH”. As to `CC(=O)SCCNC(=O)CCNC(=O)[C@H](O)C(C)(C)COP(=O)(O)OP(=O)(O)OC[C@H]1O[C@@H](n2cnc3c(N)ncnc32)[C@H](O)[C@@H]1OP(=O)(O)O` [acetyl-CoA], the “NADH consumption at 340 nm” value on AdhE (6-His-AdhE) [2] is “F12 or F24 was incubated with acetyl-CoA in the presence of NADH”.
